Results reported in the CheMixHub viscosity set.
± gives the uncertainty stated by the source.

Experiment: xn = mol fraction of the nth substance listed

CCCCN + CCO
viscosity [mPa·s]
Details | 298.15 K | 303.15 K | 313.15 K
100 kPa, x2 = 0.102 | 0.514 ± 0.021 | – | –
100 kPa, x2 = 0.15 | 0.542 ± 0.022 | – | –
100 kPa, x2 = 0.295 | 0.626 ± 0.026 | – | –
100 kPa, x2 = 0.449 | 0.749 ± 0.031 | – | –
100 kPa, x2 = 0.501 | 0.791 ± 0.032 | – | –
100 kPa, x2 = 0.595 | 0.872 ± 0.036 | – | –
100 kPa, x2 = 0.68 | 0.931 ± 0.038 | – | –
100 kPa, x2 = 0.752 | 0.977 ± 0.04 | – | –
100 kPa, x2 = 0.897 | 1.051 ± 0.043 | – | –
101.33 kPa, x1 = 0.1093 | – | 0.9614 ± 0.008 | 0.7843 ± 0.0067
101.33 kPa, x1 = 0.1943 | – | 0.9273 ± 0.0077 | 0.747 ± 0.0064
101.33 kPa, x1 = 0.2825 | – | 0.8774 ± 0.0073 | 0.7048 ± 0.0061
101.33 kPa, x1 = 0.4151 | – | 0.7915 ± 0.0067 | 0.6383 ± 0.0056
101.33 kPa, x1 = 0.5136 | – | 0.7146 ± 0.0061 | 0.5888 ± 0.0052
101.33 kPa, x1 = 0.6128 | – | 0.6369 ± 0.0055 | 0.5355 ± 0.0048
101.33 kPa, x1 = 0.7066 | – | 0.5687 ± 0.005 | 0.4844 ± 0.0044
101.33 kPa, x1 = 0.8039 | – | 0.5095 ± 0.0046 | 0.4428 ± 0.0041
101.33 kPa, x1 = 0.894 | – | 0.4717 ± 0.0043 | 0.4132 ± 0.0039

O=C(O)C(Cl)(Cl)Cl + CC(C)=O
viscosity [mPa·s], 101 kPa
Details | 298.15 K | 308.15 K | 318.15 K
x1 = 0.0484 | 0.368 ± 0.0099 | – | –
x1 = 0.1316 | 0.4855 ± 0.013 | – | –
x1 = 0.165 | – | 0.5039 ± 0.013 | 0.453 ± 0.012
x1 = 0.2517 | – | 0.6893 ± 0.018 | 0.6078 ± 0.016
x1 = 0.2543 | 0.8156 ± 0.022 | – | –
x1 = 0.3485 | – | 1.01 ± 0.027 | 0.8833 ± 0.023
x1 = 0.3826 | 1.433 ± 0.038 | – | –
x1 = 0.4411 | – | 1.508 ± 0.04 | 1.273 ± 0.034
x1 = 0.5048 | 2.571 ± 0.068 | – | –
x1 = 0.5537 | – | 2.424 ± 0.064 | 1.967 ± 0.052
x1 = 0.5971 | 3.829 ± 0.1 | – | –
x1 = 0.6808 | – | 3.725 ± 0.098 | 2.922 ± 0.077
x1 = 0.7175 | 5.808 ± 0.16 | – | –
x1 = 0.7475 | – | 4.527 ± 0.12 | 3.504 ± 0.093
x1 = 0.8521 | – | 5.855 ± 0.15 | 4.441 ± 0.12
x1 = 0.9183 | – | – | 5.024 ± 0.13

CCCCN + CCCCCC
viscosity [mPa·s]
Details | 298.15 K | 303.15 K | 313.15 K
101.3 kPa, x2 = 0.0995 | 0.4331 ± 0.0047 | – | 0.3573 ± 0.0041
101.3 kPa, x2 = 0.2009 | 0.4017 ± 0.0044 | – | 0.3331 ± 0.0038
101.3 kPa, x2 = 0.2987 | 0.3782 ± 0.0042 | – | 0.3159 ± 0.0037
101.3 kPa, x2 = 0.4003 | 0.3564 ± 0.004 | – | 0.3002 ± 0.0035
101.3 kPa, x2 = 0.4987 | 0.3397 ± 0.0038 | – | 0.2875 ± 0.0034
101.3 kPa, x2 = 0.5995 | 0.3249 ± 0.0037 | – | 0.2767 ± 0.0033
101.3 kPa, x2 = 0.7021 | 0.3127 ± 0.0036 | – | 0.2675 ± 0.0032
101.3 kPa, x2 = 0.8015 | 0.3036 ± 0.0035 | – | 0.2608 ± 0.0032
101.3 kPa, x2 = 0.8999 | 0.2974 ± 0.0035 | – | 0.2562 ± 0.0031
101.33 kPa, x1 = 0.1342 | – | 0.266 ± 0.007 | –
101.33 kPa, x1 = 0.2674 | – | 0.262 ± 0.007 | –
101.33 kPa, x1 = 0.4006 | – | 0.245 ± 0.007 | –
101.33 kPa, x1 = 0.5268 | – | 0.252 ± 0.007 | –
101.33 kPa, x1 = 0.6349 | – | 0.281 ± 0.007 | –
101.33 kPa, x1 = 0.7491 | – | 0.318 ± 0.008 | –
101.33 kPa, x1 = 0.8215 | – | 0.368 ± 0.01 | –
101.33 kPa, x1 = 0.9178 | – | 0.445 ± 0.012 | –

CCCCN + COC(C)=O
303.15 K, 101 kPa
Details | viscosity [mPa·s]
x1 = 0.1441 | 0.4159 ± 0.0052
x1 = 0.2526 | 0.4351 ± 0.0054
x1 = 0.35 | 0.4469 ± 0.0056
x1 = 0.454 | 0.4552 ± 0.0057
x1 = 0.5721 | 0.458 ± 0.0057
x1 = 0.686 | 0.4596 ± 0.0057
x1 = 0.7578 | 0.4709 ± 0.0058
x1 = 0.8757 | 0.4985 ± 0.0062
